According to ChEMBL document CHEMBL1144938, “Human beta-secretase (BACE) and BACE inhibitors” (J Med Chem, 2003):
Numbered stars: 1 amine (or outer) side, 2 acyl side, 3 side chain; on linkers, the order of the positions; unused ones are H or OH. Square brackets hold non-standard residues; d marks the D form. Peptide text beside a SMILES is read from it. Sta = CC(C)C[C@H](N)[C@@H](O)CC(=O)O; X1 = CCC(O)[C@H](N[*:1])C(=O)[*:2]; Orn = NCCC[C@H](N)C(=O)O

Legend:
Beta-secretase 1 [1] = biological target: T1, Beta-secretase 1 (Homo sapiens, UniProt P56817); experiment: Compound was tested for its effective concentration against human beta-Secretase (BACE)
Beta-secretase 1 [2] = biological target: T1, Beta-secretase 1; experiment: Compound was tested for its inhibitory activity against human beta-Secretase (BACE)

T1 sequence (P56817 whole entry): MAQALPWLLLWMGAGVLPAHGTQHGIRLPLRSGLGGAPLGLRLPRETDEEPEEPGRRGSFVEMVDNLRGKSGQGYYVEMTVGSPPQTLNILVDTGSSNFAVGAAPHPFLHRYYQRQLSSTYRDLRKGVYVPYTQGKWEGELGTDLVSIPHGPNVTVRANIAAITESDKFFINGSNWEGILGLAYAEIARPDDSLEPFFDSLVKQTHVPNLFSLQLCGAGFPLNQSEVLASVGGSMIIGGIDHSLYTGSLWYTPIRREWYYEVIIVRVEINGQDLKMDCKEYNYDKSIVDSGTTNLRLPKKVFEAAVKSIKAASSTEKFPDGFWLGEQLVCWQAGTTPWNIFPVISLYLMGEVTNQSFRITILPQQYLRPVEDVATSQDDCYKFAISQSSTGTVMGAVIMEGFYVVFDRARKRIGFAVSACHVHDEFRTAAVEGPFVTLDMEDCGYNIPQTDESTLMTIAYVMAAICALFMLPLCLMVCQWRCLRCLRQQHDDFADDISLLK

EC50 (Beta-secretase 1 [1]) [nM] | IC50 (Beta-secretase 1 [2]) [nM] | Structure (SMILES)
10000 | 20 | CC(C)[C@H](NC(=O)C[C@H](O)[C@H](Cc1cc(F)cc(F)c1)NC(=O)C(O)c1ccccc1-c1ccccc1)C(=O)Nc1cc(C(=O)O)cc(C(=O)O)c1 (stereo partly specified)
4000 | 120 | COC(=O)c1cc(NC(=O)[C@@H](NC(=O)C[C@H](O)[C@H](Cc2cc(F)cc(F)c2)NC(=O)C(O)c2ccccc2-c2ccccc2)C(C)C)cc(C(=O)OC)c1 (stereo partly specified)
– | 2 | CSCC[C@H](NC(=O)[C@@H](NC(=O)OC(C)(C)C)C(C)C)C(=O)N[C@@H](CC(C)C)[C@@H](O)C[C@@H](C)C(=O)N[C@H](C(=O)NCc1ccccc1)C(C)C
– | 30 | CCC(O)[C@H](NC(=O)[C@@H](N)CCCN)C(=O)N[C@@H](CCC(=O)O)C(=O)N[C@@H](CCC(=O)O)C(=O)N[C@H](C(=O)N[C@@H](CO)C(=O)N[C@@H](CCC(=O)O)C(=O)N[C@H](C(=O)N[C@@H](CCSC)C(=O)N[C@@H](CC(C)C)[C@@H](O)CC(=O)N[C@H](C(=O)N[C@@H](C)C(=O)N[C@@H](CCC(=O)O)C(=O)N[C@@H](Cc1ccccc1)C(=O)O)C(C)C)C(C)C)[C@@H](C)CC (stereo partly specified) (H-[Orn][X1]EEISEVM[Sta]VAEF-OH)
